Measured values: article PMC7725003, “Systematically Studying the Optimal Amino Acid Distribution Patterns of the Amphiphilic Structure by Using the Ultrashort Amphiphiles” (Frontiers in Microbiology, 2020)
Where no end group is shown, it is not given here.

Legend:
[1] = system: P. aeruginosa ATCC 27853; format: cell-based, Pseudomonas aeruginosa; conditions: after 30 passages in sub-MBC concentration
Protocol: Finally, P. aeruginosa ATCC 27853 was used as the model of the drug resistance study. […] The MBC values of the drugs against every two passage’s cells were tested. As a control, MBCs were also tested using cells that were serially passaged in fresh MHB without drugs. The assay was conducted independently in triplicate with three biological replicates.

[2] = system: B. subtilis 63501; format: cell-based, Bacillus subtilis; conditions: 63501, 24 h
Outline: (§1)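 Broth microdilution adapted from NCCLS. Peptide series in 0.2% BSA meets an equal volume of MHB culture at 0.5–1 × 10^6 CFU mL^–1; 24 h incubation at 37°C; MIC read as 95% growth inhibition at 492 nm.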

[3] = system: Listeria monocytogenes CGMCC 1.1075; format: cell-based; conditions: CGMCC 1.1075, 24 h
Outline: as §1

[4] = system: E. faecalis 29212; format: cell-based, Enterococcus faecalis; conditions: 29212, 24 h
Outline: as §1

[5] = system: E. coli K99
Outline: (§2)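 Peptides were serially diluted in 0.2% BSA and added to mid-logarithmic cells diluted in MHB to 0.5–1 × 10^6 CFU mL^–1. Assays followed an adapted NCCLS protocol.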

[6] = system: E. coli K88
Outline: as §2

[7] = system: S. epidermidis 12228; format: cell-based, Staphylococcus epidermidis; conditions: 12228, 24 h
Outline: as §1

[8] = system: S. aureus 29213; format: cell-based, Staphylococcus aureus; conditions: 29213, 24 h
Outline: as §1

[9] = system: S. aureus 25923; format: cell-based, Staphylococcus aureus; conditions: 25923, 24 h
Outline: as §1

[10] = system: MRSA 43300; format: cell-based, methicillin-resistant S. aureus; conditions: 43300, 24 h
Outline: as §1

[11] = system: Gram-negative bacteria; conditions: geometric mean of MBCs, 9 Gram-negative strains (Table 2)
[12] = system: E. coli UB1005; format: cell-based, Escherichia coli; conditions: UB1005, 24 h
Outline: as §1

[13] = system: E. coli 25922; format: cell-based, Escherichia coli; conditions: 25922, 24 h
Outline: as §1

[14] = system: E. coli O78; format: cell-based, Escherichia coli; conditions: O78, 24 h
Outline: as §1

[15] = system: Gram-negative bacteria
Outline: (§3)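 MIC is the lowest peptide concentration giving 95% growth inhibition, read at 492 nm after 24 h incubation at 37°C. Peptides were serially diluted in 0.2% BSA and added to mid-logarithmic cells at 0.5–1 × 10^6 CFU mL^–1 in MHB, following a modified NCCLS method, with more than 3 repeats.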

[16] = system: Gram-positive bacteria
Outline: as §3

[17] = system: E. coli ATCC 25922; assay: Salt sensitivity assay (MIC); format: cell-based, Escherichia coli
Outline: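 Peptides diluted serially in 0.2% BSA solution were combined at identical volumes with mid-logarithmic E. coli ATCC 25922 in MHB (0.5–1 × 10^6 CFU mL^–1) in 96-well plates, with or without a physiological salt. Plates were incubated for 24 h at 37°C. MIC was the lowest concentration inhibiting 95% of growth, measured as absorbance at 492 nm on a microplate reader.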

[18] = system: S. typhimurium 14028; format: cell-based, Salmonella typhimurium; conditions: 14028, 24 h
Outline: as §1

[19] = system: S. typhimurium 7731; format: cell-based, Salmonella typhimurium; conditions: 7731, 24 h
Outline: as §1

[20] = system: Gram-positive bacteria; conditions: geometric mean of MBCs, 7 Gram-positive strains (Table 2)
[21] = system: S. aureus 29213; assay: Salt sensitivity assay (MIC); format: cell-based, Staphylococcus aureus
Outline: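 Physiological salts (150 mM NaCl, 4.5 mM KCl, 6 μM NH4Cl, 8 μM ZnCl2, 1 mM MgCl2, 2mM CaCl2, 4 μM FeCl3) added to MHB. Bacteria at 0.5–1 × 10^6 CFU/mL exposed to serially diluted peptides for 24 h at 37°C. MIC read as lowest peptide concentration giving 95% growth inhibition by absorbance at 492 nm.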

[22] = system: P. aeruginosa 27853; format: cell-based, Pseudomonas aeruginosa; conditions: 27853, 24 h
Outline: as §1

[23] = system: all of the tested bacterial strains; assay: Geometric mean of MICs, all tested bacterial strains; format: cell-based
Outline: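 Per strain, MIC came from absorbance at 492 nm after 24 h at 37°C (≥95% inhibition), using mid-log inoculum of 0.5–1 × 10^6 CFU mL^–1 in MHB and peptide diluted in 0.2% BSA. MBC (>99.9% killed) came from overnight agar plating, and values are geometric means across strains.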

[24] = system: S. pullorum 7913; format: cell-based, Salmonella pullorum; conditions: 7913, 24 h
Outline: as §1

[25] = MHB, 24 h 37°C, 95% growth inhibition
[26] = value in brackets, >99.9% of cells killed
[27] = therapeutic index TI = MHC/GM MIC
[28] = no added salt, three independent assays

CC(C)(O/N=C(\C(=O)N[C@@H]1C(=O)N2C(C(=O)[O-])=C(C[n+]3ccccc3)CS[C@H]12)c1csc(N)n1)C(=O)O [ceftazidime, reference compound]
64 fold: increase of MBC value [1]

RLRLRRLLL-NH2 [L9]
8 µM: MIC [2]
> 64 µM: MIC [4] | MIC [7] | MIC [9] | MIC, CaCl2 ([17]; 2 mM CaCl2) | MIC, NaCl ([17]; 150 mM NaCl) | MIC, FeCl3 ([21]; 4 μM FeCl3) | MIC, NH4Cl ([21]; 6 μM NH4Cl) | MIC, ZnCl2 ([21]; 8 μM ZnCl2) | MIC, MgCl2 ([21]; 1 mM MgCl2) | MIC, CaCl2 ([21]; 2 mM CaCl2) | MIC, KCl ([21]; 4.5 mM KCl) | MIC, NaCl ([21]; 150 mM NaCl) | MIC, Control [21, 28] | MIC [22]
32 µM: MBC [3] | MBC [5, 26] | MBC [6, 26] | MBC [13] | MIC [14] | MIC, NH4Cl ([17]; 6 μM NH4Cl) | MIC, MgCl2 ([17]; 1 mM MgCl2) | MIC [24]
69.12 µM: GM MBC [11]
>64 µM: MIC [8] | MIC [10]
4.00: TI, Gram-positive bacteria [16, 27]
37.33 µM: GM MIC ([15]; geometric mean of MICs, 9 Gram-negative strains (Table 2))
78.02 µM: GM MBC [20]
64.00 µM: GM MIC ([16]; geometric mean of MICs, 7 Gram-positive strains (Table 2))
16 µM: MBC [2] | MIC [3] | MIC [5, 25] | MIC [6, 25] | MIC [13] | MIC, FeCl3 ([17]; 4 μM FeCl3) | MIC, ZnCl2 ([17]; 8 μM ZnCl2) | MIC, KCl ([17]; 4.5 mM KCl) | MIC, Control [17, 28]
5.42: TI, All [23, 27]
128 µM: MBC [12] | MBC [18] | MBC [19]
47.26 µM: GM, All ([23]; geometric mean of MICs across all tested strains)
64 µM: MIC [12] | MBC [14] | MIC [18] | MIC [19] | MBC [24]
6.86: TI, Gram-negative bacteria [15, 27]
